{
  "source": "patent EP0068324A2",
  "about": "“Microcapsule preparation for reducing increased intracranial pressure and a process for preparing the same” (Tanabe Seiyaku Co., Ltd., priority 1981, dated 1983)",
  "assay": "in vivo",
  "details": "mouse, po, mice, orally administered, measured one week after administration",
  "description": "The microcapsule preparation containing a propanol derivative of the present invention can reduce the intracranial pressure in an extremely small amount, which may be by a different mechanism from the hyperosmolar dehydrating effect by the known intravenous injection of a large amount of hypertonic solution, and the therapeutic effect is large and durable without showing any side effect such as a rebound increase of the intracranial pressure. The propanol derivative (I) of the present invention is low toxic and highly safeful.",
  "data": [
    {"smiles": "COc1cc(NC(C)=O)ccc1OCC(O)CN1CCN(c2cccc(F)c2)CC1", "note": "(stereo not shown) [1-(4-Acetamido-2-methoxyphenoxy)-3-[4-(3-fluorophenyl)piperazino]-2-propanol]", "values": [
      {"measurement": "LD50 at 168 h", "value": "~1500", "unit": "mg/kg"}
    ]}
  ]
}
